# According to ChEMBL document CHEMBL3085689, “Targeting the hydrophobic region of Hsp90's ATP binding pocket with novel 1,3,5-triazines” (Bioorg Med Chem Lett, 2013):
# The source made the active and inactive calls. The calls are words filed in the database; no cut-off is given here.
# Legend:
# [1] = tested on: NCI-H1975; assay: Antiproliferative activity against gefitinib-resistant human NCI-H1975 cells after 72 hrs by MTS assay; format: functional, cell-based
# [2] = molecular target: Heat shock protein HSP 90-beta (Homo sapiens) (UniProt P08238); assay: Inhibition of HSP90 in human H1975 cells assessed as upregulation of Hsp70 at 100 uM after 24 hrs by Western blotting analysis; format: cell-based
# [3] = molecular target: Heat shock protein HSP 90-beta (Homo sapiens) (UniProt P08238); assay: Inhibition of HSP90 in human H1975 cells assessed as reduction of Akt level at 100 uM after 24 hrs by Western blotting analysis; format: cell-based
# [4] = molecular target: Heat shock protein HSP 90-beta (Homo sapiens) (UniProt P08238); assay: Inhibition of HSP90 in human H1975 cells assessed as reduction of Met level at 100 uM after 24 hrs by Western blotting analysis; format: cell-based
# [5] = molecular target: Heat shock protein HSP 90-beta (Homo sapiens) (UniProt P08238); assay: Inhibition of HSP90 in human H1975 cells assessed as reduction of Her2 level at 100 uM after 24 hrs by Western blotting analysis; format: cell-based
# [6] = molecular target: Heat shock protein HSP 90-beta (Homo sapiens) (UniProt P08238); assay: Inhibition of HSP90 in human H1975 cells assessed as reduction of Her2 level at 50 to 100 uM after 24 hrs by densitometric analysis; format: cell-based
# [7] = molecular target: Heat shock protein HSP 90-alpha (Homo sapiens, UniProt P07900); assay: Inhibition of recombinant human Hsp90alpha ATP-binding pocket of N-terminal domain after 4 hrs by fluorescence polarization assay
# [8] = molecular target: Heat shock protein HSP 90-beta (Homo sapiens) (UniProt P08238); assay: Inhibition of HSP90 in human H1975 cells assessed as upregulation of Hsp70 after 24 hrs by densitometric analysis; format: cell-based
# [9] = molecular target: Heat shock protein HSP 90-beta (Homo sapiens) (UniProt P08238); assay: Inhibition of HSP90 in human H1975 cells assessed as reduction of Akt level after 24 hrs by densitometric analysis; format: cell-based
# [10] = molecular target: Heat shock protein HSP 90-beta (Homo sapiens) (UniProt P08238); assay: Inhibition of HSP90 in human H1975 cells assessed as reduction of Met level after 24 hrs by densitometric analysis; format: cell-based
# [11] = molecular target: Heat shock protein HSP 90-beta (Homo sapiens) (UniProt P08238); assay: Inhibition of HSP90 in human H1975 cells assessed as reduction of Her2 level after 24 hrs by densitometric analysis; format: cell-based
# Chain of Heat shock protein HSP 90-beta (Homo sapiens) (P08238 whole entry, the tested form may be a part): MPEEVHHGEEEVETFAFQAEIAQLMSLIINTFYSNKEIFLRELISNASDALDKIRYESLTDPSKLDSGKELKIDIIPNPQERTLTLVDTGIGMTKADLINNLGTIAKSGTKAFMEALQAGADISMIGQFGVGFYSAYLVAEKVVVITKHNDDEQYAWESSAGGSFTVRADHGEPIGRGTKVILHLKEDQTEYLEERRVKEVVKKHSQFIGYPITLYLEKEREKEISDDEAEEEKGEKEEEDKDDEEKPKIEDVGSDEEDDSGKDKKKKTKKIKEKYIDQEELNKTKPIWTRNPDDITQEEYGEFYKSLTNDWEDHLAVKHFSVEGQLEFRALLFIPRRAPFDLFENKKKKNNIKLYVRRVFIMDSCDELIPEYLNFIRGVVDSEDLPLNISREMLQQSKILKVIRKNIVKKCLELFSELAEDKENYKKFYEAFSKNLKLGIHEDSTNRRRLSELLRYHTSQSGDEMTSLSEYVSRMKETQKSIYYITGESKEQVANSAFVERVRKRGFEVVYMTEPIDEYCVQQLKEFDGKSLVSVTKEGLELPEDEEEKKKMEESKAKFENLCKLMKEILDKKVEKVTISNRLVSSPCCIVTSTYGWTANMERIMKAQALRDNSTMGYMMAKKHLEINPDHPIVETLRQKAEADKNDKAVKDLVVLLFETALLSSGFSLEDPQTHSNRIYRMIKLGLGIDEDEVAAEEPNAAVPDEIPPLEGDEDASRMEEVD
Structure (SMILES),Activity [1],Activity [2],Activity [4],Activity [5],other results
COc1ccc(Oc2nc(N)nc(Cl)n2)cc1,Dose-dependent effect,Active,Active,Active,Activity [3]: Active
COc1ccc(COc2nc(N)nc(Cl)n2)cc1,Dose-dependent effect,inactive,inactive,inactive,–
Nc1nc(Cl)nc(Nc2ccccc2Cl)n1,Dose-dependent effect,–,–,–,–
Cc1cccc(C)c1Oc1nc(N)nc(Cl)n1,Dose-dependent effect,Active,Active,Active,Activity [6]: Active; IC50 [7]: 5 µM; Ki [7]: 2800 nM; Activity [8]: Dose-dependent effect; Activity [9]: Dose-dependent effect; Activity [10]: Dose-dependent effect; Activity [11]: Dose-dependent effect; Activity [3]: Active
Nc1nc(Cl)nc(Nc2ccc(O)cc2)n1,Dose-dependent effect,–,–,–,–
COc1cc(COc2nc(N)nc(Cl)n2)cc(OC)c1OC,Dose-dependent effect,–,–,–,–
Nc1nc(Cl)nc(Nc2ccccc2)n1,Dose-dependent effect,–,–,–,–
